{
  "source": "patent US6716986B2",
  "about": "“Sulfuric acid mono-[3-({1-[2-(4-fluoro-phenyl)-ethyl]-piperidin-4-YL}-hydroxy-methyl)-2-methoxy-phenyl]ester” (Aventis Pharmaceuticals Inc., priority 1999, dated 2004)",
  "key": {"human 5-HT2A": {"biological_target": "T1, human 5-HT2A (Homo sapiens, UniProt P28223)", "T1 construct": "expressed in transfected cells", "T1 sequence (P28223 whole entry)": "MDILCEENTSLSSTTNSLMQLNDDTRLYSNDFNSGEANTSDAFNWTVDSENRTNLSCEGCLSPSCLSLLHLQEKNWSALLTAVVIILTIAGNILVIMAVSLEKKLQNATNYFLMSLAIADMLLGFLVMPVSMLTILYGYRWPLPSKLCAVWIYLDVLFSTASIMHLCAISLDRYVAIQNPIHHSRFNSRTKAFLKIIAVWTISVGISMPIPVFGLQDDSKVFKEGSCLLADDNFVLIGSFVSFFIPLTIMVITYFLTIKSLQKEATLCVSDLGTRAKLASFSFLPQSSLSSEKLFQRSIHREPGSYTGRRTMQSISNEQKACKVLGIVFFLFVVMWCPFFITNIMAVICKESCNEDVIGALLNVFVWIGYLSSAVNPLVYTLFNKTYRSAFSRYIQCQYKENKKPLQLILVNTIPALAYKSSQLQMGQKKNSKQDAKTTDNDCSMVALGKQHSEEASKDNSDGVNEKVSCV", "test": "In vitro inhibition of [3H]-ligand binding to human 5-HT2A receptor", "procedure": "Cells stably expressing the human homologs of the receptors (dopamine D2L, serotonin 5HT2A and 5HT2C, α1A adrenergic; cloned and expressed at Hoechst Marion Roussel; Grandy et al., 1989; Monsma et al., 1993; Schwinn et al., 1995) were grown; cell membranes were prepared, and kept frozen until used (Kongsamut et al., 1996). The relevance of these binding sites has been extensively discussed in the literature (see for example: Carlsson & Carlsson, 1990; Creese et al., 1976; Gorman & Vargas, 1995; Meltzer et al., 1989). All binding parameters were optimized at Hoechst Marion Roussel; ligand Kds were determined using both saturation analysis (Scatchard) as well as kinetic analysis (association and dissociation rates). Each batch of membrane was validated by checking the ligand Kd, and rank order of potency of selected standard compounds. […]\n(§1) Membranes were rapidly thawed and diluted to an appropriate concentration (between 20-150 μg protein/assay point depending on receptor expression level) in Tris buffer and homogenized. […] Microscint scintillation cocktail (40 μl) were added and the filter plates were counted in a Packard Top Count scintillation counter. Data were analyzed to determine Ki's for compounds of interest (Prusoff & Cheng, 19).Table: Receptor Binding Parameters."}, "[1]": {"test": "In vitro BBMEC permeability (transport studies)", "type": "in vitro ADME", "conditions": "bovine, mean±standard deviation", "procedure": "The procedure was performed according to: Kenneth L. Audus et al., Brain Microvessel Endothelial Cell Culture System (Chapter 13) pp 239-258. In Models for Assessing Drug Absorption and Metabolism, Ronald T. Borchardt et al. eds., Plenum Press, New York 1996, incorporated herein by reference."}, "human 5-HT2c": {"biological_target": "T2, human 5-HT2c (Homo sapiens, UniProt P28335)", "T2 construct": "expressed in transfected cells", "T2 sequence (P28335 33-458)": "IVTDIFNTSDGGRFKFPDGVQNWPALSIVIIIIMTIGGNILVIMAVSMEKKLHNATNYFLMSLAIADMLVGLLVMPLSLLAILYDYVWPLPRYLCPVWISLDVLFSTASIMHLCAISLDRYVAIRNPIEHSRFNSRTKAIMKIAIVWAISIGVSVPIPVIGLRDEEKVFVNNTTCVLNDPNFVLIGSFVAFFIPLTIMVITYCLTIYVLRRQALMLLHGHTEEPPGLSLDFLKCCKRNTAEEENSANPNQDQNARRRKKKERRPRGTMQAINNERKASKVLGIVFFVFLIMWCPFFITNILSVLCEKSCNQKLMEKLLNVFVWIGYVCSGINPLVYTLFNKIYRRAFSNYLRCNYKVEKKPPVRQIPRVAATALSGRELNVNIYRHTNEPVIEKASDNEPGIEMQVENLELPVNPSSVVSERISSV", "test": "In vitro inhibition of [3H]-ligand binding to human 5-HT2C receptor", "conditions": "[3H]mesulergine, CHO cell membranes", "procedure": "(§2) Cells stably expressing the human homologs of the receptors (dopamine D2L, serotonin 5HT2A and 5HT2C, α1A adrenergic; cloned and expressed at Hoechst Marion Roussel; Grandy et al., 1989; Monsma et al., 1993; Schwinn et al., 1995) were grown; cell membranes were prepared, and kept frozen until used (Kongsamut et al., 1996). […] All binding parameters were optimized at Hoechst Marion Roussel; ligand Kds were determined using both saturation analysis (Scatchard) as well as kinetic analysis (association and dissociation rates). Each batch of membrane was validated by checking the ligand Kd, and rank order of potency of selected standard compounds. Assays for the serotonin 5HT2A and dopamine D2L receptors were conducted at 37° C. in a Tris buffer containing salts (50 mM Tris Buffer, pH 7.7; 120 mM NaCl; 5 mM KCl; 2 mM CaCl2; 1 mM MgCl2), while the serotonin 5-HT2C and α1A adrenergic receptor assays used a different buffer without salts (50 mM Tris, 4 mM CaCl2 and 1% ascorbate, pH 7.4). […]\nas §1, with “counter.” for “counter. Data were analyzed to determine Ki's for compounds of interest (Prusoff & Cheng, 19).Table: Receptor Binding Parameters.”"}, "human α1A": {"biological_target": "T3, human α1A (Homo sapiens, UniProt P35348)", "T3 construct": "expressed in transfected cells", "T3 sequence (P35348 1-466)": "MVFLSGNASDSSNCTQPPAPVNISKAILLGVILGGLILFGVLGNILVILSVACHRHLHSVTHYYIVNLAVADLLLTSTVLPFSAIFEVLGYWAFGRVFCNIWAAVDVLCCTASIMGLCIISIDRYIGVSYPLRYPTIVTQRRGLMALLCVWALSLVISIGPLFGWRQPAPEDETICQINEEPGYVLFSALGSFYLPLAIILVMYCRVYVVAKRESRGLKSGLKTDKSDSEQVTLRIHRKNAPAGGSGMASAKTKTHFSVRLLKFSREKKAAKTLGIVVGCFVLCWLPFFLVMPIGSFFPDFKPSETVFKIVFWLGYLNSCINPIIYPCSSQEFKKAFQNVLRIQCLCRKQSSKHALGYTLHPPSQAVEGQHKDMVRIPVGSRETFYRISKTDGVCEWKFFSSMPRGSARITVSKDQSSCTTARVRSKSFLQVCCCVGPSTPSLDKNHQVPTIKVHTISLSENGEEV", "test": "In vitro inhibition of [3H]-ligand binding to human α1A adrenergic receptor", "conditions": "[3H]prazosin, CHO cell membranes", "procedure": "as §2\nas §1, with “counter.” for “counter. Data were analyzed to determine Ki's for compounds of interest (Prusoff & Cheng, 19).Table: Receptor Binding Parameters.”"}, "human D2L": {"biological_target": "T4, human D2L (Homo sapiens, UniProt P14416)", "T4 construct": "expressed in transfected cells", "T4 sequence (P14416 whole entry)": "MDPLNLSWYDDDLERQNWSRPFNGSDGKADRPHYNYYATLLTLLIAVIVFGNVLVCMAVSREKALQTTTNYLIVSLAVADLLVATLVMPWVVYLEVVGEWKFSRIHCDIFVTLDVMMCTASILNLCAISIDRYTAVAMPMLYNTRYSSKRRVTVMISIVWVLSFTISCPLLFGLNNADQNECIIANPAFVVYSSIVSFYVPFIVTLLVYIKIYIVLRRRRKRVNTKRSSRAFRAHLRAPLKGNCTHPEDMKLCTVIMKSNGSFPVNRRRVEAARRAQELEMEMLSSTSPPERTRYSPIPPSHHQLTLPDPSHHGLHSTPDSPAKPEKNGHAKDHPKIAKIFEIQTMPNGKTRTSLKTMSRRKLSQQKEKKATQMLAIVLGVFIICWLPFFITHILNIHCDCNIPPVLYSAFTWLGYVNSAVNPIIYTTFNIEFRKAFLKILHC", "test": "In vitro inhibition of [3H]-ligand binding to human D2L receptor", "conditions": "[3H]N-methyl spiperone, CHO cell membranes, 37° C.; read-out: D2 (Ki μM)", "procedure": "as §2\nas §1, with “counter.” for “counter. Data were analyzed to determine Ki's for compounds of interest (Prusoff & Cheng, 19).Table: Receptor Binding Parameters.”"}},
  "data": [
    {"smiles": "CN1CN(c2ccccc2)C2(CCN(CCCC(=O)c3ccc(F)cc3)CC2)C1=O", "note": "[[^3H]N-methyl spiperone, reference compound]", "values": [
      {"measurement": "Kd", "setting": "human 5-HT2A; human 5-HT2A, BHK, saturation (Scatchard) and kinetic analysis", "value": 0.92, "unit": "nM"}
    ]},
    {"smiles": "OC[C@@H](O)[C@@H](O)[C@H](O)[C@H](O)CO", "note": "[Mannitol (standard), Mannitol]", "values": [
      {"measurement": "Papp at 5.4 μM", "setting": "[1]", "value": "27.6 ± 2.3", "unit": "×10⁻⁶ cm/s"}
    ]},
    {"smiles": "COc1c(OS(=O)(=O)O)cccc1C(O)C1CCN(CCc2ccc(F)cc2)CC1", "note": "(stereo not drawn) [Example 1H, Sulfuric acid mono-(+)-[3-(-{1-[2-(4-fluoro-phenyl)-ethyl]-piperidin-4-yl}-hydroxy-methyl)-2-methoxy-phenyl] ester]", "values": [
      {"measurement": "Ki", "setting": "human 5-HT2c", "value": "> 1", "unit": "µM"},
      {"measurement": "Ki", "setting": "human 5-HT2A; [3H]N-methyl spiperone, BHK cell membranes, 37° C.", "value": 0.16, "unit": "µM"},
      {"measurement": "Ki", "setting": "human α1A", "value": "> 1", "unit": "µM"},
      {"measurement": "Ki", "setting": "human D2L", "value": "> 1", "unit": "µM"}
    ]}
  ]
}
